{"source": "patent US5708174A", "about": "“Heterocyclic-esters or -amides used as 5-HT4 receptor antagonists” (SmithKline Beecham p.l.c., priority 1992, dated 1998)", "test_system": "5-HT4 receptor", "test": "Guinea pig colon 5-HT4 receptor antagonist activity (longitudinal muscle-myenteric plexus, 5-HT-evoked contraction)", "format": "cell-based", "conditions": "guinea-pig distal colon longitudinal muscle-myenteric plexus; contraction evoked by 5-HT", "experimental": "5-HT4 RECEPTOR ANTAGONIST ACTIVITY\nMale guinea-pigs, weighing 250-400 g are used. Longitudinal muscle-myenteric plexus preparations, approximately 3 cm long, are obtained from the distal colon region. These are suspended under a 0.5 g load in isolated tissue baths containing Krebs solution bubbled with 5% CO2 in O2 and maintained at 37° C. In all experiments, the Krebs solution also contains methiothepin 10^-7 M and granisetron 10^-6 M to block effects at 5-HT1, 5-HT2 and 5-HT3 receptors.\nAfter construction of a simple concentration-response curve with 5-HT, using 30s contact times and a 15 min dosing cycle, a concentration of 5-HT is selected so as to obtain a contraction of the muscle approximately 40-70% maximum(10^-9 M approx). The tissue is then alternately dosed every 15 min with this concentration of 5-HT and then with an approximately equi-effective concentration of the nicotine receptor stimulant, dimethylphenylpiperazinium (DMPP). After obtaining consistent responses to both 5-HT and DMPP, increasing concentrations of a putative 5-HT4 receptor antagonist are then added to the bathing solution. The effects of this compound are then determined as a percentage reduction of the contractions evoked by 5-HT or by DMPP. […] A compound which reduces the response to 5-HT but not to DMPP is believed to act as a 5-HT4 receptor antagonist.", "note": "Structures can show the parent of a compound that is named as a salt."}
{"smiles": "CCCCN1CCC(COC(=O)c2cccc3cccnc23)CC1", "note": "[Example 1-2, (1-Butyl-4-piperidinylmethyl)quinolinyl-8-carboxylate hydrochloride]", "values": [{"measurement": "5-HT4 receptor antagonist activity (in words)", "result": "particularly good activity"}]}
